Laboratory results taken from patent publication US11919859B2, “Herbicidal mixture, composition and method” (FMC Corporation, priority 2017, dated 2024).

Key:
rice (Oryza sativa) = conditions: in vivo
Protocol: (§1) Test C Plant species in the flooded paddy test selected from rice (Oryza sativa), sedge, umbrella (small-flower umbrella sedge, Cyperus difformis), ducksalad (Heteranthera limosa), and barnyardgrass (Echinochloa crus-galli) were grown to the 2-leaf stage for testing. At time of treatment, test pots were flooded to 3 cm above the soil surface, treated by application of test compounds directly to the paddy water, and then maintained at that water depth for the duration of the test. Treated plants and controls were maintained in a greenhouse for 13 to 15 d, after which time all species were compared to controls and visually evaluated. Plant response ratings, summarized in Table C, are based on a scale of 0 to 100 where 0 is no effect and 100 is complete control. A dash (-) response means no test result.

[1] = tested on: ducksalad (Heteranthera limosa); test: Test C flooded paddy test, ducksalad; type: in vivo; conditions: Flood; 250 g ai/ha; 13 to 15 d
Protocol: as §1

corn (Zea mays) = test: Test B postemergence, corn; type: in vivo; conditions: approximately 10 d
Text: (§2) Seeds of plant species selected from barnyardgrass (Echinochloa crus-galli), kochia (Kochia scoparia), ragweed (common ragweed, Ambrosia elatior), Ryegrass, Italian (Italian ryegrass, Lolium multiflorum), foxtail, green (green foxtail, Setaria viridis), and pigweed (Amaranthus retroflexus) were planted into a blend of loam soil and sand and treated preemergence with a directed soil spray using test chemicals formulated in a non-phytotoxic solvent mixture which included a surfactant.
(§3) At the same time, plants selected from these weed species and also wheat (Triticum aestivum), corn (Zea mays), blackgrass (Alopecurus myosuroides), and galium (catchweed bedstraw, Galium aparine) were planted in pots containing the same blend of loam soil and sand and treated with postemergence applications of test chemicals formulated in the same manner. Plants ranged in height from 2 to 10 cm and were in the one- to two-leaf stage for the postemergence treatment. Treated plants and untreated controls were maintained in a greenhouse for approximately 10 d, after which time all treated plants were compared to untreated controls and visually evaluated for injury. Plant response ratings, summarized in Table B, are based on a 0 to 100 scale where 0 is no effect and 100 is complete control. A dash (-) response means no test result.

[2] = tested on: pigweed (Amaranthus retroflexus); test: Test B preemergence, pigweed; type: in vivo; conditions: approximately 10 d
Text: as §2, §3

kochia (Kochia scoparia) [3] = test: Test B postemergence, kochia; type: in vivo; conditions: approximately 10 d
Text: as §2, §3

[4] = tested on: sedge, umbrella (small-flower umbrella sedge, Cyperus difformis); test: Test C flooded paddy test, umbrella sedge; type: in vivo; conditions: Flood; 250 g ai/ha; 13 to 15 d
Protocol: as §1

[5] = tested on: pigweed (Amaranthus retroflexus); test: Test B postemergence, pigweed; type: in vivo; conditions: approximately 10 d
Text: as §2, §3

[6] = tested on: wheat (Triticum aestivum); test: Test B postemergence, wheat; type: in vivo; conditions: approximately 10 d
Text: as §2, §3

[7] = tested on: ragweed (common ragweed, Ambrosia elatior); test: Test B preemergence, ragweed; type: in vivo; conditions: approximately 10 d
Text: as §2, §3

[8] = tested on: foxtail, green (green foxtail, Setaria viridis); test: Test B postemergence, green foxtail; type: in vivo; conditions: approximately 10 d
Text: as §2, §3

[9] = tested on: blackgrass (Alopecurus myosuroides); test: Test B postemergence, blackgrass; type: in vivo; conditions: approximately 10 d
Text: as §2, §3

[10] = tested on: foxtail, green (green foxtail, Setaria viridis); test: Test B preemergence, green foxtail; type: in vivo; conditions: approximately 10 d
Text: as §2, §3

[11] = tested on: Ryegrass, Italian (Italian ryegrass, Lolium multiflorum); test: Test B postemergence, Italian ryegrass; type: in vivo; conditions: approximately 10 d
Text: as §2, §3

[12] = tested on: Ryegrass, Italian (Italian ryegrass, Lolium multiflorum); test: Test B preemergence, Italian ryegrass; type: in vivo; conditions: approximately 10 d
Text: as §2, §3

[13] = tested on: barnyardgrass (Echinochloa crus-galli); test: Test B postemergence, barnyardgrass; type: in vivo; conditions: approximately 10 d
Text: as §2, §3

[14] = tested on: barnyardgrass (Echinochloa crus-galli); test: Test B preemergence, barnyardgrass; type: in vivo; conditions: approximately 10 d
Text: as §2, §3

kochia (Kochia scoparia) [15] = test: Test B preemergence, kochia; type: in vivo; conditions: approximately 10 d
Text: as §2, §3

[16] = tested on: barnyardgrass (Echinochloa crus-galli); test: Test C flooded paddy test, barnyardgrass; type: in vivo; conditions: Flood; 250 g ai/ha; 13 to 15 d
Protocol: as §1

[17] = tested on: ragweed (common ragweed, Ambrosia elatior); test: Test B postemergence, ragweed; type: in vivo; conditions: approximately 10 d
Text: as §2, §3

[18] = tested on: galium (catchweed bedstraw, Galium aparine); test: Test B postemergence, galium; type: in vivo; conditions: approximately 10 d
Text: as §2, §3

[19] = tested on: barnyardgrass (ECHCG, Echinochloa crus-galli); test: Test A flooded greenhouse test, barnyardgrass; type: in vivo; conditions: 14 d
Text: (§4) Seeds of Asian sprangletop (LEPCH, Leptochloa chinensis), smallflower umbrella sedge (CYPDI, Cyperus difformis), monochoria (MOOVA, Monochoria vaginalis) and ducksalad (HETLI, Heteranthera limosa) were sown on the soil surface in four separate quadrants of 16-cm tubs filled with steam pasteurized Tama soil. Simultaneously, plantings of barnyardgrass (ECHCG, Echinochloa crus-galli), japonica rice (ORYSA, Oryza sativa) and late watergrass (ECHPH, Echinochloa phyllopogon) were established in separate “plug” flats. Plants were grown in a greenhouse using supplemental lighting to maintain a photoperiod of approximately 16 h; daytime and nighttime temperatures were approximately 27-30° C. and 24-27° C., respectively. After 8 d, barnyardgrass, rice and late watergrass plants were transplanted in 3 quadrants of separate tub, and the water level was adjusted to a final depth of 3 cm. Herbicide application of Cmpd. No. 1 and florpyrauxifen-benzyl (CAS Registry No. 1390661-72-9; 439.2 g/mol) timing was targeted at the 2.0 to 2.5 leaf stage and the plants were treated with test chemicals formulated in a non-phytotoxic solvent. Treated plants and controls were maintained in a greenhouse for 14 d, after which time all species were compared to controls and visually evaluated. Plant response ratings are summarized in Table A, and are based on a scale of 0 to 100 where 0 is no effect and 100 is complete control and is the mean of duplicate ratings. A dash (-) response means no test result.
(§5) Colby's Equation was used to determine the herbicidal effects expected from the mixtures. Colby's Equation (Colby, S. R. “Calculating Synergistic and Antagonistic Responses of Herbicide Combinations,” Weeds 1967 15(1), pp 20-22) calculates the expected additive effect of herbicidal mixtures and for two active ingredients is of the form: Pa+b=Pa+Pb−(PaPb/100) wherein Pa+b is the percentage effect of the mixture expected from additive contribution of the individual components: • Pa is the observed percentage effect of the first active ingredient at the same use rate as in the mixture, and • Pb is the observed percentage effect of the second active ingredient at the same use rate as in the mixture. The results and additive effects expected from Colby's Equation are listed in Table A. Application rates are grams of active ingredient per hectare (g a.i./ha). “Obsd.” is the observed effect and “Exp.” is expected effect calculated from Colby's Equation.

[20] = tested on: monochoria (MOOVA, Monochoria vaginalis); test: Test A flooded greenhouse test, monochoria; type: in vivo; conditions: 14 d
Text: as §4, §5

[21] = tested on: japonica rice (ORYSA, Oryza sativa); test: Test A flooded greenhouse test, japonica rice (crop); type: in vivo; conditions: 14 d
Text: as §4
Colby's Equation was used to determine the herbicidal effects expected from the mixtures. […] “Obsd.” is the observed effect and “Exp.” is expected effect calculated from Colby's Equation.

[22] = tested on: late watergrass (ECHPH, Echinochloa phyllopogon); test: Test A flooded greenhouse test, late watergrass; type: in vivo; conditions: 14 d
Text: as §4, §5

[23] = tested on: Asian sprangletop (LEPCH, Leptochloa chinensis); test: Test A flooded greenhouse test, Asian sprangletop; type: in vivo; conditions: 14 d
Text: as §4, §5

[24] = tested on: ducksalad (HETLI, Heteranthera limosa); test: Test A flooded greenhouse test, ducksalad; type: in vivo; conditions: 14 d
Text: as §4, §5

[25] = tested on: smallflower umbrella sedge (CYPDI, Cyperus difformis); test: Test A flooded greenhouse test, smallflower umbrella sedge; type: in vivo; conditions: 14 d
Text: as §4, §5

[26] = florpyrauxifen-benzyl 2 g a.i./ha alone
[27] = florpyrauxifen-benzyl 4 g a.i./ha alone

Cc1cc([C@H]2CN(C)C(=O)[C@@H]2C(=O)Nc2cccc(F)c2F)cc(OC(F)F)n1 [Cmpd. No. 4]
70: Wheat plant response rating (0 to 100) ([6]; 125 g ai/ha) | Foxtail, Green plant response rating (0 to 100) ([8]; 31 g ai/ha) | Blackgrass plant response rating (0 to 100) ([9]; 125 g ai/ha) | Ryegrass, Italian plant response rating (0 to 100) ([11]; 125 g ai/ha)
0: Kochia plant response rating (0 to 100) (kochia (Kochia scoparia) [3]; 31 g ai/ha) | Sedge, Umbrella plant response rating (0 to 100) [4] | Ragweed plant response rating (0 to 100) ([7]; 31 g ai/ha) | Kochia plant response rating (0 to 100) (kochia (Kochia scoparia) [15]; 31 g ai/ha) | Ragweed plant response rating (0 to 100) ([17]; 31 g ai/ha) | Galium plant response rating (0 to 100) ([18]; 31 g ai/ha)
80: Corn plant response rating (0 to 100) (corn (Zea mays); 125 g ai/ha) | Barnyardgrass plant response rating (0 to 100) ([13]; 31 g ai/ha) | Kochia plant response rating (0 to 100) (kochia (Kochia scoparia) [15]; 125 g ai/ha)
20: Kochia plant response rating (0 to 100) (kochia (Kochia scoparia) [3]; 125 g ai/ha) | Pigweed plant response rating (0 to 100) ([5]; 31 g ai/ha) | Ragweed plant response rating (0 to 100) ([7]; 125 g ai/ha)
30: Rice plant response rating (0 to 100) (rice (Oryza sativa)) | Ryegrass, Italian plant response rating (0 to 100) ([11]; 31 g ai/ha) | Ryegrass, Italian plant response rating (0 to 100) ([12]; 31 g ai/ha)
85: Barnyardgrass plant response rating (0 to 100) [16]
40: Pigweed plant response rating (0 to 100) ([2]; 31 g ai/ha) | Wheat plant response rating (0 to 100) ([6]; 31 g ai/ha)
60: Corn plant response rating (0 to 100) (corn (Zea mays); 31 g ai/ha) | Pigweed plant response rating (0 to 100) ([5]; 125 g ai/ha) | Blackgrass plant response rating (0 to 100) ([9]; 31 g ai/ha) | Ragweed plant response rating (0 to 100) ([17]; 125 g ai/ha) | Galium plant response rating (0 to 100) ([18]; 125 g ai/ha)
100: Ducksalad plant response rating (0 to 100) [1] | Foxtail, Green plant response rating (0 to 100) ([10]; 31 g ai/ha) | Foxtail, Green plant response rating (0 to 100) ([10]; 125 g ai/ha) | Barnyardgrass plant response rating (0 to 100) ([14]; 31 g ai/ha) | Barnyardgrass plant response rating (0 to 100) ([14]; 125 g ai/ha)
90: Pigweed plant response rating (0 to 100) ([2]; 125 g ai/ha) | Foxtail, Green plant response rating (0 to 100) ([8]; 125 g ai/ha) | Ryegrass, Italian plant response rating (0 to 100) ([12]; 125 g ai/ha) | Barnyardgrass plant response rating (0 to 100) ([13]; 125 g ai/ha)

COc1c(Cl)ccc(-c2nc(C(=O)OCc3ccccc3)c(Cl)c(N)c2F)c1F [florpyrauxifen-benzyl, 2-pyridinecarboxylic acid, 4-amino-3-chloro-6-(4-chloro-2-fluoro-3-methoxyphenyl)-5-fluoro-, phenylmethyl ester, reference compound]
90: MOOVA Obsd. plant response rating (0 to 100) [20, 26] | HETLI Obsd. plant response rating (0 to 100) [24, 26]
85: CYPDI Obsd. plant response rating (0 to 100) [25, 27]
80: CYPDI Obsd. plant response rating (0 to 100) [25, 26]
0: ECHCG Obsd. plant response rating (0 to 100) [19, 26] | ECHCG Obsd. plant response rating (0 to 100) [19, 27] | ORYSA Obsd. plant response rating (0 to 100) [21, 26] | ORYSA Obsd. plant response rating (0 to 100) [21, 27] | ECHPH Obsd. plant response rating (0 to 100) [22, 26] | ECHPH Obsd. plant response rating (0 to 100) [22, 27] | LEPCH Obsd. plant response rating (0 to 100) [23, 26] | LEPCH Obsd. plant response rating (0 to 100) [23, 27]
100: MOOVA Obsd. plant response rating (0 to 100) [20, 27] | HETLI Obsd. plant response rating (0 to 100) [24, 27]
